From PubChem BioAssay AID248 (DTP/NCI, 2004)
Several values for one entry are separate records, joined by “and”; a condition that tells them apart may be missing. Equal entries are not always repeated. Inconclusive results and toxic doses are left out. Cut-off read from the data, not from the text of the source: active = T/C of 150% or more; inactive = T/C below 125%. Square brackets hold non-standard residues; d marks the D form. Peptide text beside a SMILES is read from it. * marks the point of attachment. ξ: configuration not given here. Cbz = O=C(OCc1ccccc1)*; ξI = CCC(C)C(N)C(=O)O

Tested on: L1210 leukemia ip in BDF1 mice, survival T/C
Assay: NCI In Vivo Anticancer Drug Screen. Data for tumor model L1210 Leukemia (intraperitoneal) in B6D2F1 (BDF1) mice
Details: endpoint: mean survival time, higher = longer survival
Outline: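 Transplanted-tumor mice were given test agent; controls received vehicle only. Survival readings from the two groups were divided (treated over control).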

[1] = dose: 100.0 mg/kg/injection, schedule: Q01DX001 (ip), vehicle: saline
[2] = dose: 200.0 mg/kg/injection, schedule: Q01DX001 (ip), vehicle: saline
[3] = dose: 400.0 mg/kg/injection, schedule: Q01DX001 (ip), vehicle: saline
[4] = dose: 100.0 mg/kg/injection, schedule: Q04DX003 (ip), vehicle: Klucel (hydroxypropylcellulose) (HPC)
[5] = dose: 200.0 mg/kg/injection, schedule: Q04DX003 (ip), vehicle: Klucel (hydroxypropylcellulose) (HPC)
[6] = dose: 400.0 mg/kg/injection, schedule: Q04DX003 (ip), vehicle: Klucel (hydroxypropylcellulose) (HPC)
[7] = dose: 50.0 mg/kg/injection, schedule: Q01DX009 (ip), vehicle: saline with Tween-80
[8] = dose: 100.0 mg/kg/injection, schedule: Q01DX009 (ip), vehicle: saline with Tween-80
[9] = dose: 100.0 mg/kg/injection, schedule: Q01DX009 (ip), vehicle: saline
[10] = dose: 200.0 mg/kg/injection, schedule: Q01DX009 (ip), vehicle: saline
[11] = dose: 100.0 mg/kg/injection, schedule: Q04DX003 (ip), vehicle: saline
[12] = dose: 200.0 mg/kg/injection, schedule: Q01DX009 (ip), vehicle: saline with Tween-80
[13] = dose: 200.0 mg/kg/injection, schedule: Q04DX003 (ip), vehicle: saline
[14] = dose: 400.0 mg/kg/injection, schedule: Q01DX009 (ip), vehicle: saline with Tween-80
[15] = dose: 400.0 mg/kg/injection, schedule: Q04DX003 (ip), vehicle: saline
[16] = dose: 100.0 mg/kg/injection, schedule: Q04DX003 (ip), vehicle: saline with Tween-80
[17] = dose: 200.0 mg/kg/injection, schedule: Q04DX003 (ip), vehicle: saline with Tween-80
[18] = dose: 400.0 mg/kg/injection, schedule: Q04DX003 (ip), vehicle: saline with Tween-80
[19] = dose: 100.0 mg/kg/injection, schedule: Q01DX009 (ip), vehicle: saline sonified
[20] = dose: 100.0 mg/kg/injection, schedule: Q04DX002 (ip), vehicle: Klucel (hydroxypropylcellulose) (HPC)
[21] = dose: 200.0 mg/kg/injection, schedule: Q04DX002 (ip), vehicle: Klucel (hydroxypropylcellulose) (HPC)
[22] = dose: 6.25 mg/kg/injection, schedule: Q01DX009 (ip), vehicle: saline

Measured: T/C

CCN(CCNC(C)(C)[P+](=O)O)c1ccccc1
inactive: dose: 75.0 mg/kg/injection, schedule: Q04DX003 (ip), vehicle: Klucel (hydroxypropylcellulose) (HPC) 100 % of control | [1] 105 % of control | dose: 150.0 mg/kg/injection, schedule: Q04DX003 (ip), vehicle: Klucel (hydroxypropylcellulose) (HPC) 96 % of control | [2] 105 % of control | dose: 300.0 mg/kg/injection, schedule: Q04DX003 (ip), vehicle: Klucel (hydroxypropylcellulose) (HPC) 110 % of control | [3] 102 % of control

O=C(CCCC(=O)N/N=C/c1ccc2c(c1)OCO2)N/N=C\c1ccc2c(c1)OCO2
inactive: dose: 50.0 mg/kg/injection, schedule: Q01DX001 (ip), vehicle: saline 103 % of control | [1] 103 % of control | [2] 106 % of control | [3] 100 % of control

Nc1ccc(CC(=O)NC(CCC(=O)O)C(=O)O)cc1 (stereo not given)
inactive: dose: 100.0 mg/kg/injection, schedule: Q04DX002 (ip), vehicle: saline 103 % of control | dose: 200.0 mg/kg/injection, schedule: Q04DX002 (ip), vehicle: saline 91 % of control | dose: 400.0 mg/kg/injection, schedule: Q04DX002 (ip), vehicle: saline 100 % of control

CCCCN(C)N=Nc1cn(C2OC(CO)C(O)C2O)c(=O)n(C)c1=O (stereo not given)
inactive: dose: 100.0 mg/kg/injection, schedule: Q01DX005 (ip), vehicle: saline 119 % of control

O=C(O)c1ccc(NC(c2ccccc2)c2ccc3cccnc3c2O)cc1 (stereo not given)
inactive: [1] 86 % of control | [2] 89 % of control | [3] 86 % of control

CCCCC(=O)N/N=C/c1ccccc1OCC
inactive: [1] 102 % of control | [2] 107 % of control | [3] 93 % of control

CCC(C)C(NC(=O)CNC(=O)CNC(=O)OCc1ccccc1)C(=O)OC (stereo not drawn) (Cbz-Gly-Gly-[ξI]-OMe)
inactive: [4] 98 % of control | [5] 96 % of control | [6] 98 % of control

COc1ccc(C=O)cc1OCc1ccccc1
inactive: dose: 100.0 mg/kg/injection, schedule: Q01DX009 (ip), vehicle: water 96 % of control | dose: 100.0 mg/kg/injection, schedule: Q04DX003 (ip), vehicle: water 100 % of control | dose: 200.0 mg/kg/injection, schedule: Q01DX009 (ip), vehicle: water 96 % of control | dose: 200.0 mg/kg/injection, schedule: Q04DX003 (ip), vehicle: water 96 % of control | dose: 400.0 mg/kg/injection, schedule: Q01DX009 (ip), vehicle: water 102 % of control | dose: 400.0 mg/kg/injection, schedule: Q04DX003 (ip), vehicle: water 100 % of control

O=C(COc1ccc(Cl)cc1Cl)Nc1ccc(F)cc1
inactive: dose: 25.0 mg/kg/injection, schedule: Q01DX009 (ip), vehicle: saline with Tween-80 93 % of control | [7] 91 % of control | [8] 104 % of control and 88 % of control

O=[N+]([O-])c1cc(C(F)(F)F)ccc1Cl
inactive: [9] 102 % of control | [10] 97 % of control

c1ccc(P2CCc3[nH]c4ccccc4c3C2)cc1 (stereo not given)
inactive: [8] 97 % of control | [11] 100 % of control | [12] 110 % of control | [13] 96 % of control | [14] 100 % of control | [15] 113 % of control

COc1ccc(C(C#N)N2CCCCC2)cc1 (stereo not given)
inactive: dose: 25.0 mg/kg/injection, schedule: Q01DX009 (ip), vehicle: Klucel (hydroxypropylcellulose) (HPC) 102 % of control | dose: 50.0 mg/kg/injection, schedule: Q01DX009 (ip), vehicle: Klucel (hydroxypropylcellulose) (HPC) 101 % of control | [4] 95 % of control | [5] 111 % of control | [6] 101 % of control

Nc1ccccc1SC(CC(=O)c1ccccc1)c1ccccc1 (stereo not given)
inactive: dose: 100.0 mg/kg/injection, schedule: Q04DX002 (ip), vehicle: saline with Tween-80 93 % of control and 96 % of control | [16] 91 % of control | dose: 200.0 mg/kg/injection, schedule: Q04DX002 (ip), vehicle: saline with Tween-80 100 % of control and 103 % of control | [17] 93 % of control and 109 % of control | dose: 400.0 mg/kg/injection, schedule: Q04DX002 (ip), vehicle: saline with Tween-80 98 % of control and 104 % of control | [18] 95 % of control and 91 % of control

CC(C)(C)OOC(=O)c1ccccc1O
inactive: [19] 113 % of control | [11] 106 % of control | [13] 106 % of control | [15] 110 % of control

Nc1nc(N)c(-c2ccc(Cl)c(Cl)c2)c(CO)n1
inactive: [16] 98 % of control | [17] 107 % of control | [18] 117 % of control

O=C(O)c1cccc2c1C(=O)c1c(O)cccc1C2=O
inactive: dose: 50.0 mg/kg/injection, schedule: Q04DX002 (ip), vehicle: Klucel (hydroxypropylcellulose) (HPC) 105 % of control | [20] 96 % of control | [21] 92 % of control

CN(C)N=Nc1ccc(C(=O)N/N=C/c2ccc(Cl)cc2)cc1
inactive: dose: 50.0 mg/kg/injection, schedule: Q04DX003 (ip), vehicle: Klucel (hydroxypropylcellulose) (HPC) 99 % of control | [4] 97 % of control | [5] 103 % of control

Nc1nc(N)nc(C(=O)Cc2ccccc2)n1
inactive: [7] 108 % of control | [8] 101 % of control | [12] 94 % of control

N#CC(CC(=O)c1ccc(Cl)cc1)c1ccccc1 (stereo not given)
inactive: [8] 91 % of control | [12] 96 % of control | [14] 91 % of control

Nc1ccccc1SC(CC(=O)c1ccccc1)c1cccc([N+](=O)[O-])c1 (stereo not given)
inactive: dose: 100.0 mg/kg/injection, schedule: Q01DX005 (ip), vehicle: Klucel (hydroxypropylcellulose) (HPC) 112 % of control | [20] 95 % of control | dose: 200.0 mg/kg/injection, schedule: Q01DX005 (ip), vehicle: Klucel (hydroxypropylcellulose) (HPC) 105 % of control | dose: 200.0 mg/kg/injection, schedule: Q01DX009 (ip), vehicle: Klucel (hydroxypropylcellulose) (HPC) 87 % of control | [21] 110 % of control | dose: 400.0 mg/kg/injection, schedule: Q01DX005 (ip), vehicle: Klucel (hydroxypropylcellulose) (HPC) 91 % of control | dose: 400.0 mg/kg/injection, schedule: Q04DX002 (ip), vehicle: Klucel (hydroxypropylcellulose) (HPC) 89 % of control

ON=C(CCl)CCl
inactive: [22] 89 % of control | dose: 12.5 mg/kg/injection, schedule: Q01DX001 (ip), vehicle: saline 113 % of control | dose: 25.0 mg/kg/injection, schedule: Q01DX001 (ip), vehicle: saline 98 % of control

CCC1=[N+](C)C(C)(C)CC(C)O1 (stereo not given)
inactive: [22] 102 % of control | dose: 6.25 mg/kg/injection, schedule: Q04DX003 (ip), vehicle: saline with Tween-80 98 % of control | dose: 12.5 mg/kg/injection, schedule: Q01DX009 (ip), vehicle: saline 102 % of control | dose: 12.5 mg/kg/injection, schedule: Q04DX003 (ip), vehicle: saline with Tween-80 94 % of control | dose: 25.0 mg/kg/injection, schedule: Q01DX009 (ip), vehicle: saline 107 % of control | dose: 25.0 mg/kg/injection, schedule: Q04DX003 (ip), vehicle: saline with Tween-80 94 % of control | dose: 50.0 mg/kg/injection, schedule: Q01DX009 (ip), vehicle: saline 102 % of control | dose: 50.0 mg/kg/injection, schedule: Q04DX003 (ip), vehicle: saline with Tween-80 94 % of control and 95 % of control

COc1cc(Br)c(CC2=[N+](C)CCc3cc(OC)c(OCc4ccccc4)cc32)cc1OC
inactive: [16] 98 % of control | [17] 101 % of control | [18] 101 % of control

CCCCCCCCCCCCCCCCCC(=O)OCCCCCCCCCCCCC
inactive: [19] 88 % of control | [16] 100 % of control | dose: 200.0 mg/kg/injection, schedule: Q01DX009 (ip), vehicle: saline sonified 95 % of control | [17] 92 % of control | dose: 400.0 mg/kg/injection, schedule: Q01DX009 (ip), vehicle: saline sonified 91 % of control | [18] 86 % of control

CC(=O)Nc1ccc(S(=O)(=O)Nc2ccccc2F)cc1
inactive: [9] 102 % of control | [10] 102 % of control | dose: 400.0 mg/kg/injection, schedule: Q01DX009 (ip), vehicle: saline 105 % of control
